Measurements reported in US7919493B2, “Anititumoral ecteinascidin derivatives” (Pharma Mar, S.A., priority 2001, dated 2011).
In brackets after ≈: the same amount, converted by molar mass.

How the values were obtained:
Type in all cases: cell-based
MEL-28 = experiment: Cytotoxic assay, sulforhodamine B (SRB), MEL-28; conditions: Homo sapiens, SK-MEL-28; MEL-28 cells, 48 hours exposure, SRB method
Text: (§1) A colorimetric type of assay, using sulforhodamine B (SRB) reaction has been adapted for a quantitative measurement of cell growth and viability (following the technique described by Skehan P et al. J. Natl. Cancer Inst. 1990, 82, 1107-1112).
(§2) This form of assay employs 96-well cell culture microplates of 9 mm diameter (Faircloth et al. Methods in cell science, 1988, 11(4), 201-205; Mosmann et al, Journal of. Immunological. Methods, 1983, 65(1-2), 55-63). Most of the cell lines are obtained from American Type Culture Collection (ATCC) derived from different human cancer types. Cells are maintained in RPMI 1640 10% FBS, supplemented with 0.1 g/L penicillin and 0.1 g/l streptomycin sulfate and then incubated at 37° C., 5% CO2 and 98% humidity. For the experiments, cells were harvested from subconfluent cultures using trypsin and resuspended in fresh medium before counting and plating.
(§3) Cells were seeded in 96 well microtiter plates at 5×10^3 cells per well in aliquots of 195 μL medium, and allowed to attach to the plate surface for 18 hours in drug free medium. Afterwards, samples are in aliquots of 5 μL in a ranging from 10 to 10-8 μg/mL dissolved in DMSO/ETOH (0.2% in PS buffer). After 48 hours exposure, the antitumor effect are measured by the SRB method: cells are fixed by adding 50 μL of cold 50% (w/v) trichloroacetic acid and incubating for 60 minutes at 4° C. Plates are washed with deionised water and dried. 100 μL of SRB solution (0.4% w/v in 1% acetic acid) is added to each microtiter well and incubated for 10 minutes at room temperature. Unbound SRB is removed by washing with 1% acetic acid. Plates are air-dried and bound stain is solubilized with Tris Buffer. Optical densities are read on an automated spectrophotometric plate reader at a single wavelength of 490 nm.
(§4) The values for mean ±SD of data from triplicate wells are calculated. GI50 (concentration that produces 50% growth inhibition) parameter was calculated (NCI algorithm) by automatic interpolation.

A549 = experiment: Cytotoxic assay, sulforhodamine B (SRB), A549; conditions: Homo sapiens; A549 cells, 48 hours exposure, SRB method
Text: as §1, §2, §3, §4

DU-14S = experiment: Cytotoxic assay, sulforhodamine B (SRB), DU-14S; conditions: Homo sapiens; DU-14S cells, 48 hours exposure, SRB method
Text: as §1, §2, §3, §4

HT29 = experiment: Cytotoxic assay, sulforhodamine B (SRB), HT29; conditions: Homo sapiens, HT-29; HT29 cells, 48 hours exposure, SRB method
Text: as §1, §2, §3, §4

[1] = tested on: A-549 (monolayer culture of a human lung carcinoma); experiment: Cytotoxic activity screening, A-549 cells; conditions: Homo sapiens, A549, 72 h, three days of incubation, Crystal Violet, approximate IC50
[2] = tested on: HT-29 (monolayer culture of a human colon carcinoma); experiment: Cytotoxic activity screening, HT-29 cells; conditions: Homo sapiens, HT-29, 72 h, three days of incubation, Crystal Violet, approximate IC50
[3] = tested on: MEL-28 (monolayer culture of a human melanoma); experiment: Cytotoxic activity screening, MEL-28 cells; conditions: Homo sapiens, SK-MEL-28, 72 h, three days of incubation, Crystal Violet, approximate IC50
Outline: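 Human monolayer lines seeded at 2×10^4 cells/well in MEM with 10% FCS containing drug, in duplicate. After 3 days at 37° C, 10% CO2, wells stained with 0.1% Crystal Violet. Approximate IC50 estimated from growth versus drug-free controls.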

DU-145 = experiment: Cytotoxic activity screening, DU-145 cells; conditions: Homo sapiens, DU-145, DU-145 cells
[4] = tested on: P-388 (suspension culture of a lymphoid neoplasm from DBA/2 mouse); experiment: Cytotoxic activity screening, P-388 cells; conditions: Mus musculus, P388, 72 h, three days of incubation, approximate IC50 vs control growth
Outline: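 P-388 murine lymphoid cells seeded at 1×10^4 cells/well in MEM with 5% FCS containing drug at the stated concentrations, run in duplicate. Untreated wells served as growth controls to confirm exponential growth.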

With `COc1c(C)cc2c(c1O)[C@@H]1[C@@H]3[C@@H]4SC[C@H](NC(=O)c5cc6ccccc6oc5=O)C(=O)OC[C@@H](c5c6c(c(C)c(OC(C)=O)c54)OCO6)N3[C@@H](C#N)[C@H](C2)N1C` [Compound 15a] as the compound, how does the GI50 (MEL-28) read?
The GI50 was 3.23 nM.

What about the GI50 (A549) of the same compound?
Its GI50 is 2.83 nM.

And the GI50 (DU-14S)?
Its GI50 is 4.38 nM.

And the GI50 (HT29)?
The GI50 was 4.38 nM.

With `COc1c(C)cc2c(c1O)[C@@H]1[C@@H]3[C@@H]4SC[C@H](NC(=O)[C@@H]5CCCN5C(=O)OC(C)(C)C)C(=O)OC[C@@H](c5c6c(c(C)c(OC(C)=O)c54)OCO6)N3[C@@H](C#N)[C@H](C2)N1C` [Compound 15b] as the compound, how does the GI50 (A549) read?
The GI50 was 7.32 nM.

And the GI50 (HT29)?
The GI50 was 3.66 nM.

Which GI50 (MEL-28) does the source give for `COc1c(C)cc2c(c1O)[C@@H]1[C@@H]3[C@@H]4SC[C@H](NC(=O)c5cccnc5Cl)C(=O)OC[C@@H](c5c6c(c(C)c(OC(C)=O)c54)OCO6)N3[C@@H](C#N)[C@H](C2)N1C` [Compound 15c] here?
Its GI50 is 1.21 nM.

What about the GI50 (A549) of the same compound?
Its GI50 is 1.8 nM.

What about the GI50 (DU-14S) of the same compound?
The GI50 was 0.468 nM.

What about the GI50 (HT29) of the same compound?
The GI50 was 2.93 nM.

How did the GI50 (A549) turn out when `COc1c(C)cc2c(c1O)[C@@H]1[C@@H]3[C@@H]4SC[C@H](NC(=O)c5cnn(-c6ccccc6)c5C(F)(F)F)C(=O)OC[C@@H](c5c6c(c(C)c(OC(C)=O)c54)OCO6)N3[C@@H](C#N)[C@H](C2)N1C` [Compound 15d] was run?
Its GI50 is 14.6 nM.

And the GI50 (HT29)?
The GI50 was 10.1 nM.

With `COc1c(C)cc2c(c1O)[C@@H]1[C@@H]3[C@@H]4SC[C@H](NC(=O)c5cc(C)on5)C(=O)OC[C@@H](c5c6c(c(C)c(OC(C)=O)c54)OCO6)N3[C@@H](C#N)[C@H](C2)N1C` [Compound 15e] as the compound, how does the GI50 (MEL-28) read?
The GI50 was 2.58 nM.

What about the GI50 (A549) of the same compound?
The GI50 was 5.77 nM.

What about the GI50 (DU-14S) of the same compound?
The GI50 was 3.84 nM.

And the GI50 (HT29)?
The GI50 was 5.36 nM.

Which GI50 (A549) does the source give for `COc1c(C)cc2c(c1O)[C@@H]1[C@@H]3[C@@H]4SC[C@H](NC(=O)[C@@H]5CCCN5)C(=O)OC[C@@H](c5c6c(c(C)c(OC(C)=O)c54)OCO6)N3[C@@H](C#N)[C@H](C2)N1C` [Compound 15f] here?
Its GI50 is 2.78 nM.

What about the GI50 (HT29) of the same compound?
Its GI50 is 0.278 nM.

Which results are given for `COc1c(C)cc2c(c1O)[C@@H]1[C@@H]3[C@@H]4SC[C@H](NC(=O)c5cc6ccccc6oc5=O)C(=O)OC[C@@H](c5c6c(c(C)c(OC(C)=O)c54)OCO6)N3[C@@H](O)[C@H](C2)N1C` [Compound 16a]?
GI50 (MEL-28): 3.02 nM; GI50 (A549): 2.94 nM; GI50 (DU-14S): 4.73 nM; GI50 (HT29): 3.94 nM

Which GI50 (MEL-28) does the source give for `COc1c(C)cc2c(c1O)[C@@H]1[C@@H]3[C@@H]4SC[C@H](NC(=O)[C@@H]5CCCN5C(=O)OC(C)(C)C)C(=O)OC[C@@H](c5c6c(c(C)c(OC(C)=O)c54)OCO6)N3[C@@H](O)[C@H](C2)N1C` [Compound 16b] here?
The GI50 was 1.11 nM.

And the GI50 (A549)?
The GI50 was 1.23 nM.

And the GI50 (DU-14S)?
The GI50 was 0.37 nM.

What about the GI50 (HT29) of the same compound?
The GI50 was 1.23 nM.

Which results are given for `COc1c(C)cc2c(c1O)[C@@H]1[C@@H]3[C@@H]4SC[C@H](NC(=O)[C@@H]5CCCN5)C(=O)OC[C@@H](c5c6c(c(C)c(OC(C)=O)c54)OCO6)N3[C@@H](O)[C@H](C2)N1C` [Compound 16c]?
GI50 (MEL-28): 0.281 nM; GI50 (A549): 5.63 nM; GI50 (DU-14S): 1.13 nM; GI50 (HT29): 0.0422 nM

How did the GI50 (MEL-28) turn out when `COc1c(C)cc2c(c1O)[C@@H]1[C@@H]3[C@@H]4SC[C@H](NC(=O)c5cccnc5Cl)C(=O)OC[C@@H](c5c6c(c(C)c(OC(C)=O)c54)OCO6)N3[C@@H](O)[C@H](C2)N1C` [Compound 16d] was run?
The GI50 was 2.5 nM.

What about the GI50 (A549) of the same compound?
Its GI50 is 1330 nM.

And the GI50 (DU-14S)?
Its GI50 is 2.16 nM.

And the GI50 (HT29)?
Its GI50 is 13300 nM.

With `COc1c(C)cc2c(c1O)[C@@H]1[C@@H]3[C@@H]4SC[C@H](NC(=O)c5cnn(-c6ccccc6)c5C(F)(F)F)C(=O)OC[C@@H](c5c6c(c(C)c(OC(C)=O)c54)OCO6)N3[C@@H](O)[C@H](C2)N1C` [Compound 16e] as the compound, how does the GI50 (MEL-28) read?
Its GI50 is 29.8 nM.

And the GI50 (A549)?
Its GI50 is 35.1 nM.

And the GI50 (DU-14S)?
Its GI50 is 27.2 nM.

And the GI50 (HT29)?
The GI50 was 38.6 nM.

Which GI50 (MEL-28) does the source give for `COc1c(C)cc2c(c1O)[C@@H]1[C@@H]3[C@@H]4SC[C@H](NC(=O)c5cc(C)on5)C(=O)OC[C@@H](c5c6c(c(C)c(OC(C)=O)c54)OCO6)N3[C@@H](O)[C@H](C2)N1C` [Compound 16f] here?
The GI50 was 5.13 nM.

What about the GI50 (A549) of the same compound?
The GI50 was 3.47 nM.

And the GI50 (DU-14S)?
The GI50 was 3.4 nM.

And the GI50 (HT29)?
The GI50 was 4.3 nM.

With `COc1c(C)cc2c(c1O)[C@@H]1C3[C@@H]4SC[C@@H](OC(C)=O)C(=O)OC[C@@H](c5c6c(c(C)c(OC(C)=O)c54)OCO6)N3[C@@H](O)[C@H](C2)N1C` (stereo partly shown) [Compound 21a] as the compound, how does the IC50 [1] read?
Its IC50 is 1 ng/mL (≈ 1.52 nM).

What about the IC50 [2] of the same compound?
The IC50 was 1 ng/mL (≈ 1.52 nM).

And the IC50 [3]?
The IC50 was 1 ng/mL (≈ 1.52 nM).

What about the IC50 (DU-145) of the same compound?
Its IC50 is 1 ng/mL (≈ 1.52 nM).

What about the IC50 [4] of the same compound?
Its IC50 is 0.5 ng/mL (≈ 0.761 nM).

`CCCC(=O)O[C@H]1CS[C@@H]2c3c(OC(C)=O)c(C)c4c(c3[C@H](COC1=O)N1C2[C@H]2c3c(cc(C)c(OC)c3O)C[C@@H]([C@@H]1O)N2C)OCO4` (stereo partly shown) [Compound 21c] was tested. Which IC50 [1] did it give?
The IC50 was 1 ng/mL (≈ 1.46 nM).

What about the IC50 [2] of the same compound?
The IC50 was 1 ng/mL (≈ 1.46 nM).

What about the IC50 [3] of the same compound?
Its IC50 is 1 ng/mL (≈ 1.46 nM).

What about the IC50 (DU-145) of the same compound?
Its IC50 is 1 ng/mL (≈ 1.46 nM).

And the IC50 [4]?
The IC50 was 1 ng/mL (≈ 1.46 nM).

Which results are given for `CCCCCCCC(=O)O[C@H]1CS[C@@H]2c3c(OC(C)=O)c(C)c4c(c3[C@H](COC1=O)N1C2[C@H]2c3c(cc(C)c(OC)c3O)C[C@@H]([C@@H]1O)N2C)OCO4` (stereo partly shown) [Compound 21e]?
IC50 [1]: 1 ng/mL (≈ 1.35 nM); IC50 [2]: 1 ng/mL (≈ 1.35 nM); IC50 [3]: 1 ng/mL (≈ 1.35 nM); IC50 (DU-145): 1 ng/mL (≈ 1.35 nM); IC50 [4]: 1 ng/mL (≈ 1.35 nM)

`COc1c(C)cc2c(c1O)[C@@H]1C3[C@@H]4SC[C@H](OC(=O)/C=C/c5ccccc5)C(=O)OC[C@@H](c5c6c(c(C)c(OC(C)=O)c54)OCO6)N3[C@@H](O)[C@H](C2)N1C` (stereo partly shown) [Compound 21h] was tested. Which IC50 [1] did it give?
The IC50 was 1 ng/mL (≈ 1.34 nM).

And the IC50 [2]?
The IC50 was 1 ng/mL (≈ 1.34 nM).

What about the IC50 [3] of the same compound?
Its IC50 is 1 ng/mL (≈ 1.34 nM).

What about the IC50 (DU-145) of the same compound?
The IC50 was 1 ng/mL (≈ 1.34 nM).

What about the IC50 [4] of the same compound?
Its IC50 is 1 ng/mL (≈ 1.34 nM).

For `COc1c(C)cc2c(c1O)[C@@H]1C3[C@@H]4SC[C@H](OS(C)(=O)=O)C(=O)OC[C@@H](c5c6c(c(C)c(OC(C)=O)c54)OCO6)N3[C@@H](O)[C@H](C2)N1C` (stereo partly shown) [Compound 21ll], which IC50 [1] is on record?
Its IC50 is 1 ng/mL (≈ 1.44 nM).

And the IC50 [2]?
The IC50 was 1 ng/mL (≈ 1.44 nM).

What about the IC50 [3] of the same compound?
Its IC50 is 1 ng/mL (≈ 1.44 nM).

What about the IC50 (DU-145) of the same compound?
Its IC50 is 1 ng/mL (≈ 1.44 nM).

What about the IC50 [4] of the same compound?
The IC50 was 1 ng/mL (≈ 1.44 nM).
